From patent EP1655298A1, “Novel polymorph forms of candesartan cilexetil” (priority 2004, dated 2006) come the findings set out here.

Molecules are shown by their SMILES. Where two headings read alike, the source gives them in different places. Where only a bound is given, the exact number is not on record here.

Common to all, as to format: physicochemical
One series in a line: Hygroscopicity by DVS. Conditions: DVS - first cycle at 90 % humidity. On the procedure: (§1) Physiologically relevant medium is a phosphate buffer at pH=6.76 + Sodiumtauroholat (2,5 mM) + Lecitin (0,5 mM). Surface area of Form 1 was 2.15 - 2,68 m^2/g whereas the surface area of Form 5 was 7,66 m^2/g (BET - isotherm), the hygroscopity as established by DVS - first cycle at 90 % humidity was 0,23% for Form I and 0,44% for Form 5.

Series [1] is described as follows: Comparable solubility in phosphate buffer / physiologically relevant medium. Conditions: for solubility at 0.5 h: read-out: C30 min; for solubility at 1 h: read-out: C60 min. The method, then:
In order to prepare a pharmaceutical composition physical properties were measured.
as §1

A short description of series [2]: Surface area (BET isotherm). On the procedure:
as §1

`CCOc1nc2cccc(C(=O)OC(C)OC(=O)OC3CCCCC3)c2n1Cc1ccc(-c2ccccc2-c2nnn[nH]2)cc1` (stereo not drawn) [Form 1, candesartan cilexetil]: the hygroscopity in the series “Hygroscopicity by DVS” (listed as Form I) was 0,23%. Moreover, the solubility at 0.5 h in series [1] (aqueous buffer, Phosphate buffer pH=6.76, 30 min) is less than 0.2 µg/mL. The solubility at 1 h in series [1] (aqueous buffer, Phosphate buffer pH=6.76, 60 min) was less than 0.2 µg/mL.

Consider `CCOc1nc2cccc(C(=O)OC(C)OC(=O)OC3CCCCC3)c2n1Cc1ccc(-c2ccccc2-c2nnn[nH]2)cc1` (stereo not drawn) [Form 5, candesartan cilexetil], for which, in “Hygroscopicity by DVS”, the hygroscopity was 0,44%. In addition, the C30 min in series [1] (Phosphate buffer pH=6.76, 30 min) was less than 0.2 µg/mL. This molecule yielded a C60 min in series [1] (Phosphate buffer pH=6.76, 60 min) of less than 0.2 µg/mL. For the same molecule, in series [1] (phosphate buffer + taurocholate + lecithin, Physiologically relevant medium: phosphate buffer pH=6.76 + Sodiumtauroholat (2,5 mM) + Lecitin (0,5 mM), 30 min), the solubility at 0.5 h is 37.1 µg/mL. The solubility at 1 h in series [1] (phosphate buffer + taurocholate + lecithin, Physiologically relevant medium: phosphate buffer pH=6.76 + Sodiumtauroholat (2,5 mM) + Lecitin (0,5 mM), 60 min) is 68.5 µg/mL. Besides, the Surface area in series [2] is given as 7,66 m^2/g.
